ChEMBL document CHEMBL5104132, “Identification of sugar-containing natural products that interact with i-motif DNA” (Bioorg Med Chem Lett, 2022)

Assays:
Format in all cases: nucleic-acid assay
[1] = tested on: Quadruplex DNA; test: Binding affinity to human telomeric IKF1 G4 quadruplex DNA assessed as change in melting temperature at 20 uM at pH 7.4 by FRET assay
[2] = tested on: i-motif DNA; test: Binding affinity to human telomeric 1ELN i-motif DNA assessed as change in melting temperature at 20 uM at pH 7.4 by FRET assay
[3] = tested on: i-motif DNA; test: Binding affinity to human telomeric 1ELN i-motif DNA assessed as change in melting temperature at 20 uM at pH 5.5 by FRET assay
[4] = tested on: Quadruplex DNA; test: Binding affinity to human ILPR G4 quadruplex DNA assessed as change in melting temperature at 20 uM at pH 7.4 by FRET assay
[5] = tested on: i-motif DNA; test: Binding affinity to human ILPR i-motif DNA assessed as change in melting temperature at 20 uM at pH 7.4 by FRET assay
[6] = tested on: i-motif DNA; test: Binding affinity to human ILPR i-motif DNA assessed as change in melting temperature at 20 uM at pH 5.5 by FRET assay
[7] = tested on: dsDNA; test: Binding affinity to human 1BNA double stranded DNA assessed as change in melting temperature at 20 uM at pH 7.4 by FRET assay
[8] = tested on: Quadruplex DNA; test: Displacement of thiazole orange from human telomeric IKF1 G4 quadruplex DNA at 10 equiv. at pH 7.4 by fluorescent intercalator displacement assay
[9] = tested on: Quadruplex DNA; test: Displacement of thiazole orange from human telomeric IKF1 G4 quadruplex DNA at 100 equiv. at pH 7.4 by fluorescent intercalator displacement assay
[10] = tested on: i-motif DNA; test: Displacement of thiazole orange from human telomeric 1ELN i-motif DNA at 10 equiv. at pH 7.4 by fluorescent intercalator displacement assay
[11] = tested on: i-motif DNA; test: Displacement of thiazole orange from human telomeric 1ELN i-motif DNA at 100 equiv. at pH 7.4 by fluorescent intercalator displacement assay
[12] = tested on: i-motif DNA; test: Displacement of thiazole orange from human telomeric 1ELN i-motif DNA at 10 equiv. at pH 5.5 by fluorescent intercalator displacement assay
[13] = tested on: i-motif DNA; test: Displacement of thiazole orange from human telomeric 1ELN i-motif DNA at 100 equiv. at pH 5.5 by fluorescent intercalator displacement assay
[14] = tested on: Quadruplex DNA; test: Displacement of thiazole orange from human ILPR G4 quadruplex DNA at 10 equiv. at pH 7.4 by fluorescent intercalator displacement assay
[15] = tested on: Quadruplex DNA; test: Displacement of thiazole orange from human ILPR G4 quadruplex DNA at 100 equiv. at pH 7.4 by fluorescent intercalator displacement assay
[16] = tested on: i-motif DNA; test: Displacement of thiazole orange from human ILPR i-motif DNA at 10 equiv. at pH 7.4 by fluorescent intercalator displacement assay
[17] = tested on: i-motif DNA; test: Displacement of thiazole orange from human ILPR i-motif DNA at 100 equiv. at pH 7.4 by fluorescent intercalator displacement assay
[18] = tested on: i-motif DNA; test: Displacement of thiazole orange from human ILPR i-motif DNA at 10 equiv. at pH 5.5 by fluorescent intercalator displacement assay
[19] = tested on: i-motif DNA; test: Displacement of thiazole orange from human ILPR i-motif DNA at 100 equiv. at pH 5.5 by fluorescent intercalator displacement assay
[20] = tested on: dsDNA; test: Displacement of thiazole orange from human 1BNA double stranded DNA at 10 equiv. at pH 7.4 by fluorescent intercalator displacement assay
[21] = tested on: dsDNA; test: Displacement of thiazole orange from human 1BNA double stranded DNA at 100 equiv. at pH 7.4 by fluorescent intercalator displacement assay
[22] = target: i-motif DNA; test: Binding affinity to human telomeric i-motif DNA by SPR analysis
[23] = target: i-motif DNA; test: Binding affinity to human c-Myc promoter i-motif DNA by SPR analysis
[24] = target: dsDNA; test: Binding affinity to human double stranded DNA by SPR analysis

Row | SMILES | ΔTm [1] [°C] | ΔTm [2] [°C] | ΔTm [3] [°C] | ΔTm [4] [°C] | ΔTm [5] [°C] | ΔTm [6] [°C] | ΔTm [7] [°C] | Activity [8] [%] | Activity [9] [%] | Activity [10] [%] | Activity [11] [%] | Activity [12] [%] | Activity [13] [%] | Activity [14] [%] | Activity [15] [%] | Activity [16] [%] | Activity [17] [%] | Activity [18] [%] | Activity [19] [%] | Activity [20] [%] | further results
1 | O=c1ccc2cc(O[C@@H]3O[C@H](CO)[C@@H](O)[C@H](O)[C@H]3O)c(O)cc2o1 | -7.6 | -6.4 | -0.4 | -2.4 | -2.6 | 0 | -2.7 |  |  |  |  |  |  |  |  |  |  |  |  |  | 
2 | O=c1c(-c2ccc(O)cc2)coc2cc(O[C@@H]3O[C@H](CO)[C@@H](O)[C@H](O)[C@H]3O)cc(O)c12 | -6.6 | -5.4 | -0.8 | -4.7 | -2.4 | -0.4 | -3 | 20.8 | 28.7 | 16.2 | -288 | 0.6 | 19.3 | 1.6 | 6.4 | 24.2 | 31.8 | 5.3 | 23.5 | 6.2 | Activity [21]: 14.5%
3 | O=C(O)C1=CO[C@@H](O[C@@H]2O[C@H](CO)[C@@H](O)[C@H](O)[C@H]2O)[C@@H]2C(CO)=CC[C@H]12 | -4.7 | -2.5 | -0.5 | -3.6 | -2.2 | -0.3 | -4.8 | 23 | 25.2 | 2.6 | -37.8 | -10.2 | 22.9 | 4.1 | 1.4 | 12.3 | 22 | -3.5 | 25.3 | 6.4 | Activity [21]: 9.6%
4 | O=c1c(-c2ccc(O)cc2)coc2cc(O[C@@H]3O[C@H](CO)[C@@H](O)[C@H](O)[C@H]3O)ccc12 | -2.4 | 0 | -0.3 | -1.8 | -2.4 | -0.1 | -2.3 | 20.9 | 29 | 14.9 | -154 | -4.2 | 20.3 | 2.6 | 2.4 | 20 | 28.9 | -2.5 | 22.6 | 7 | Activity [21]: 10.9%
5 | COC(=O)C1=CO[C@@H](O[C@@H]2O[C@H](CO)[C@@H](O)[C@H](O)[C@H]2O)[C@@H]2C(CO)=CC[C@H]12 | -6.1 | -1.8 | -0.5 | -2.9 | -1.8 | -0.1 | -3.5 | 23.1 | 25.7 | -32 | -84.1 | -9.5 | 32.3 | -6.7 | 1.8 | 21.2 | 31.8 | 7.2 | 27.9 | 8.5 | Activity [21]: 11.2%
6 | O=C(O)[C@H]1O[C@@H](Oc2cc3oc(-c4ccccc4)cc(=O)c3c(O)c2O)[C@H](O)[C@@H](O)[C@@H]1O | -1.8 | -3.9 | -0.4 | -3.8 | -2.6 | -0.3 | -2.5 | 24 | 46.3 | -3.8 | -91.2 | 12.2 | 36.5 | 4.9 | 17.7 | 23.9 | 38.5 | 9.5 | 35.3 | 8.2 | Activity [21]: 25.3%
7 | NC[C@H]1O[C@H](O[C@H]2[C@H](O)[C@@H](O[C@H]3O[C@H](CO)[C@@H](O)[C@H](N)[C@H]3O)[C@H](N)C[C@@H]2N)[C@H](N)C[C@@H]1O [TOBRAMYCIN] |  |  |  |  |  |  |  |  |  |  |  |  |  |  |  |  |  |  |  |  | Kd [22]: 17 µM; Kd [23]: 13 µM; Kd [24]: 18 µM
8 | OC[C@H]1O[C@@H](O[C@@H]2[C@@H](CO)O[C@](O)(CO)[C@H]2O)[C@H](O)[C@@H](O)[C@H]1O | -4 | -3.7 | -0.4 | -4.6 | -2.7 | -0.3 | -2.7 | 21.4 | 26.1 | -54 | -68 | -28.4 | 20.2 | 0.9 | 0.4 | 26.7 | 34.7 | -5 | 23.1 | 4.3 | Activity [21]: 9%
